Holding throughout (test): NCI tumour cell line growth inhibition, 48 h
In assay [1] the test system is UO-31 renal.
For assay [2], the system named is HOP-92 NSCLC.
Assay [3] deals with SN12C renal.
The subject of assay [4] is TK-10 renal.
The test system of assay [5] is SF-295 CNS.
Assay [6] concerns LOX IMVI melanoma.
For assay [7], the system named is T-47D breast.
The subject of assay [8] is SK-OV-3 ovarian.
The test system of assay [9] is UACC-257 melanoma.
Assay [10] has as its system PC-3 prostate.
Assay [11] relates to K-562 leukemia.
Assay [12] relates to EKVX NSCLC.
Assay [13] deals with SK-MEL-2 melanoma.
In assay [14] the test system is KM12 colon.
Assay [15] concerns CAKI-1 renal.
The test system of assay [16] is BT-549 breast.

Each structure is given as a SMILES string.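 Five concentrations, 48 hours, 96-well plates. At the TGI there is no net growth.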

Consider `C[C@@H]1O[C@@H]2OCC[C@@H]2C2=C1C(=O)c1ccccc1C2=O`, for which the TGI in assay [1] was found to be 22.8 µM; in assay [2], 18.9 µM; in [3], 29.8 µM; in assay [4], 34.1 µM; in assay [5], 33 µM; in assay [6], 5.65 µM. For the same molecule, the TGI in [7] was 31.9 µM; in assay [8] it was 89.9 µM; in [9], 24.5 µM; in assay [10], over 100 µM; in [11], 32.7 µM; in assay [12], 39.9 µM. The figures for the TGI in [13], in assay [14] and in assay [15] were 25.7 µM, 30.7 µM and 29.8 µM, respectively.

Consider `COc1ccc(OC)c2c1C(=O)C(Cl)=C(Cl)C2=O`, for which the TGI stood at 6.66 µM in assay [1]; 8.14 µM in assay [2]; 23.1 µM in [3]; 9.83 µM in assay [4]; 38.6 µM in assay [5]; 5.18 µM in assay [6]. The TGI in assay [7] was 8.09 µM; in [8], 67.4 µM; in [9], 4.68 µM; in assay [10], 27.6 µM; in assay [11] it was over 100 µM; in assay [12], 21.9 µM. Moreover, the results for the TGI in [13], in assay [14] and in assay [15] were 8.73 µM, 33.8 µM and 7.99 µM, respectively.

As for `CCN(CC)CC1CCCCN1CC(=O)N1c2ccc(Br)cc2C(=O)Nc2cccnc21` (stereo not drawn), the TGI was 44.8 µM in [1]; over 100 µM in assay [2]; over 100 µM in [3]; over 100 µM in [4]; over 100 µM in assay [5]; over 100 µM in [6]. Also, the TGI in assay [7], in [8], in [9], in assay [10], in assay [11] and in [12] was over 100 µM each time. Also, the TGI in assay [13], in assay [14] and in assay [15] was over 100 µM in each case.

`Cc1nnc2sc(-c3ccc(N)cc3)nn12`: the TGI in assay [1], in assay [2], in assay [3], in [4], in assay [5] and in [7] was over 100 µM each time. Moreover, the TGI in [8], in [9], in [10], in [11], in assay [12] and in assay [13] was over 100 µM each time. Moreover, the TGI in [14] and in assay [15] was over 100 µM in each case.

As for `N[C@H]1CCc2c1nc1c(c2-c2ccccc2)CC[C@@H]1N`, the TGI is over 100 µM in assay [2]; over 100 µM in assay [3]; over 100 µM in assay [4]; 45.5 µM in assay [5]; 30.6 µM in [6]; 28.1 µM in [16]. Also, the TGI is 29.5 µM in assay [10]; 26.6 µM in assay [11]; over 100 µM in assay [12]; 40.1 µM in [13]; over 100 µM in assay [14]; 33.7 µM in assay [15].

With `O=C1C=CC(=O)c2c(O)c(Nc3ccc(OC(F)(F)F)cc3)c(Cl)c(O)c21`, the TGI in assay [1] was found to be 5.58 µM; in assay [3], 1.17 µM; in assay [4], 2.81 µM; in assay [5] it was 4.62 µM; in assay [6] it was 0.677 µM; in assay [16], 3.12 µM. Also, the TGI in [7] was 0.972 µM; in [8], 3.19 µM; in [9] it was 7.95 µM; in assay [10], 9.62 µM; in assay [11], 4.36 µM; in assay [12] it was 2.17 µM. In addition, the TGI in [13] was found to be 3.48 µM; in assay [14], 2.95 µM; in [15] it was 2.96 µM.

On to `COc1ccc(-n2c(C)nc3ccc(N=Cc4ccccc4)cc3c2=O)cc1`, for which the TGI in assay [1], in assay [3], in [4], in assay [5], in [6] and in assay [16] was over 100 µM in each case. For the same molecule, the TGI in [7], in assay [9], in assay [10], in assay [11], in [12] and in [14] was over 100 µM throughout. In [15], this molecule displayed a TGI of over 100 µM.

As for `CCCCCCCCCCCCCCCCCCNc1ccn(C2OC(COP(=O)(O)OCCCCCCCCCCCCCCCC)C(O)C2O)c(=O)n1` (stereo not drawn), the TGI in [1], in assay [2], in [3], in assay [4], in assay [5] and in [6] was over 100 µM each time. Also, the TGI in [7], in assay [8], in assay [9], in [10], in [11] and in assay [12] was over 100 µM each time. Further, the TGI in assay [13], in assay [14] and in [15] was over 100 µM throughout.

`CCCCCCCCCCCCCC/C(=C/OCC[N+](C)(C)C)OC(C)=O` (tested in a mixture with another compound): the TGI amounted to 30 µM in assay [1]; 3.75 µM in assay [2]; 12.5 µM in [3]; 3.76 µM in assay [4]; 5.34 µM in assay [5]; 5.85 µM in [16]. Besides, the TGI in [8] came out at 17.1 µM; in assay [9], 8.91 µM; in assay [10], 5.27 µM; in assay [11], 13.3 µM; in [12], 10.7 µM; in [15] it was 4.04 µM.

Turning to `CCCCNC(=O)C1=C(C)NC(C)=C(C(=O)NCCCC)C1`, the TGI in assay [1], in assay [2], in [3], in assay [4], in assay [5] and in assay [6] was over 100 µM in each case. The TGI in assay [16], in assay [7], in assay [8], in assay [9], in assay [12] and in assay [13] was over 100 µM throughout. The TGI in assay [14] and in assay [15] was over 100 µM each time.

Take `Cn1c2nc(=Nc3ccc(Cl)cc3)n3ccc4ccccc4c3c2c(=O)n1-c1ccccc1`: the TGI in assay [1], in assay [3], in [4], in assay [5], in assay [6] and in [16] was over 100 µM throughout. The TGI in assay [7], in assay [9], in [10], in assay [11], in assay [12] and in assay [13] was over 100 µM each time. Moreover, the TGI in assay [14] and in assay [15] was over 100 µM in each case.

Turning to `Cc1ccc2c(c1)C(=O)C1(C2)Cc2ccc(C)cc2C1=O`, the TGI in assay [1], in assay [2], in assay [4], in assay [5], in assay [6] and in assay [7] was over 100 µM each time. For the same molecule, the TGI in [8], in assay [9], in [10], in assay [11], in assay [12] and in assay [13] was over 100 µM each time. In addition, the TGI in assay [15] is over 100 µM.

Take `O=C(C1=CCC2(CC1)OCCO2)N(Cc1ccccc1)c1ccccc1I`: the TGI was 33.3 µM in [1]; 43.2 µM in assay [2]; 56 µM in assay [3]; 44.5 µM in assay [4]; 51.8 µM in assay [5]; 56.8 µM in assay [6]. In addition, the TGI in assay [7] was 59.7 µM; in [8], 88.2 µM; in [9], 46.7 µM; in assay [10], 59.9 µM; in assay [11] it was over 100 µM; in assay [12] it was 31.5 µM. For the same molecule, the figures for the TGI in assay [13], in [14] and in assay [15] were 38.7 µM, 29.5 µM and 88.3 µM, respectively.

`COc1cccc(NC(=O)c2c(SC)n[nH]c2N)c1`: the TGI in assay [2], in assay [3], in [4], in [5], in [6] and in [16] was over 100 µM throughout. The TGI in assay [8], in assay [9], in assay [10], in [11], in assay [12] and in assay [13] was over 100 µM in each case. Also, the TGI in [14] and in assay [15] was over 100 µM each time.

As for `CNNC1=NS(=O)(=O)c2cc(C(=O)OC)c(Cl)cc2S1`, the TGI in assay [3], in assay [4], in assay [5], in [6], in assay [16] and in assay [7] was over 10 µM in each case. Besides, the TGI in [8], in assay [9], in [10], in [11], in [12] and in [13] was over 10 µM throughout. Moreover, the TGI in assay [14] and in [15] was over 10 µM throughout.

With `S=C(NNC1=NCCCCN1)Nc1ccccc1`, the TGI was over 100 µM in assay [1]; over 100 µM in assay [3]; over 100 µM in assay [5]; 94.7 µM in assay [6]; over 100 µM in assay [16]; over 100 µM in assay [7]. For the same molecule, the TGI in assay [8], in assay [9], in [10], in assay [11], in [12] and in [14] was over 100 µM in each case. The same molecule showed a TGI in assay [15] of over 100 µM.

For `Cc1ccccc1N=Nc1ccc(N=Nc2c(O)ccc3cc(S(=O)(=O)O)cc(S(=O)(=O)O)c23)c(C)c1`, the TGI in [1], in assay [2], in assay [4], in assay [5], in [16] and in [8] was over 100 µM throughout. Moreover, the TGI in [9], in assay [10], in [11], in assay [12], in assay [13] and in [14] was over 100 µM throughout. This molecule registered a TGI in [15] of over 100 µM.

For `Oc1ccc2ccccc2c1N=Nc1ccc(N=Nc2ccccc2)cc1`, the TGI in assay [1], in [3], in assay [4], in assay [5], in assay [6] and in [16] was over 100 µM throughout. For the same molecule, the TGI in assay [7], in assay [8], in assay [9], in assay [10], in [11] and in assay [12] was over 100 µM throughout. Further, the TGI in assay [13], in [14] and in assay [15] was over 100 µM each time.

As for `COc1cccc(N2CCc3c(C)c(C#N)c4nc5ccccc5n4c32)c1`, the TGI in assay [1], in [2], in [3], in assay [4], in assay [5] and in [6] was over 100 µM throughout. In addition, the TGI in [16], in assay [8], in [9], in assay [10], in assay [11] and in assay [13] was over 100 µM in each case.

Take `Nc1nonc1-c1noc(-c2nonc2N)[n+]1[O-]`: the TGI in [1], in [2], in [3], in assay [4], in assay [5] and in assay [6] was over 100 µM throughout. In addition, the TGI was over 100 µM in assay [16]; over 100 µM in [8]; over 100 µM in assay [9]; over 100 µM in [10]; over 100 µM in [11]; 82.8 µM in [12]. Besides, the TGI is over 100 µM in assay [13], over 100 µM in assay [14] and 51.6 µM in assay [15].

The values above are taken from PubChem BioAssay (NCI).
